Experimental data: patent publication US20120207740A1, “Method for Treating Pervasive Development Disorders” (CUREMARK, LLC, priority 1999, published 2012)

How the values were obtained:
[1] = test system: children diagnosed as having autism; experiment: Fecal Chymotrypsin Test before and after secretin infusion in 16 autistic children (Experiment 1); assay type: in vivo, human; settings: each of 16 autistic children; approximately one week after first secretin infusion, 1 U/kg IV
Experimental: (§1) In this experiment, 16 children diagnosed as having autism were administered the following Fecal Chymotrypsin Test in accordance with an embodiment of the invention. First, approximately 2 grams of stool were collected from each child and placed in a sterile container (although it is to be understood that any quantity of stool may be collected, as 2 grams of stool is not a required amount). Each stool sample was then analyzed using, e.g., an enzymatic photospectrometry analysis as is known by those skilled in the art, to determine the level of fecal chymotrypsin in the stool. Although the enzymatic photospectrophotometry process is preferred, any suitable conventional method may be used for measuring the fecal chymotrypsin levels. The measured chymotrypsin levels of the 16 autistic children are illustrated in FIG. 13.
After determining the chymotrypsin levels of the stools, each of these levels were compared with threshold chymotrypsin levels to determine if the child was likely to benefit from secretin administration. By way of example, with the fecal chymotrypsin tests of the stool samples being performed at 30° C., normal levels of chymotrypsin are deemed to lie above 8.4 U/gram, whereas pathologically abnormal levels are deemed to lie below 4.2 U/gram. […]

[2] = test system: children diagnosed as having autism; experiment: CARS (Childhood Autism Rating Scale) test pre- and post-secretin administration (Experiment 1); assay type: in vivo, human; settings: 16 autistic children
Experimental: Upon determining that a given child was likely to benefit from secretin administration based on the results of the fecal chymotrypsin test, the child was administered a CARS (Childhood Autism Rating Scale) test prior to being scheduled for secretin infusion.
For each of the 16 autistic children tested, a preferred secretin infusion process according to the present invention was performed involving the administering of 1 U/kg of body weight of Secretin-Ferring for a period of nine months at intervals of approximately 6 weeks. In addition, another CARS test was administered to each of the 16 autistic children 3 weeks post secretin administration to determine if their autism had changed post infusion.
A preferred secretin infusion process includes the initial step of prepping an arm of the candidate child with an IV injection of saline. A test dose of 1 U of Secretin-Ferring is then administered to the child. Approximately one minute after infusion, the child is examined for signs of allergic reaction including rash, increased heart rate, and increase of blood pressure. […] Subsequently, each child receives a 1 U/kg of body weight infusion of Secretin-Ferring approximately every 6 weeks for 9 months. It is to be understood that any commercially available form of secretin may be used.

[3] = test system: autistic children with abnormal fecal chymotrypsin levels; experiment: Fecal chymotrypsin levels of 37 autistic children administered secretin over 6 months (Experiment 2); assay type: in vivo, human; settings: 6 Months Post-Secretin Administration, of 37 children
Experimental: as §1
After determining the chymotrypsin levels of the stools, each of these levels were compared with threshold chymotrypsin levels to determine if the child was likely to benefit from secretin administration. By way of example, with the fecal chymotrypsin tests of the stool samples being performed at 30° C., normal levels of chymotrypsin are deemed to lie above 8.4 U/gram, whereas pathologically abnormal levels are deemed to lie below 4.2 U/gram. In addition, chymotrypsin levels between 8.4 U/gram and 4.2 U/gram are considered equivocal, and further testing of the individual's fecal chymotrypsin levels over a period of time should be performed.
A preferred secretin infusion process includes the initial step of prepping an arm of the candidate child with an IV injection of saline. A test dose of 1 U of Secretin-Ferring is then administered to the child. […]
In this experiment, 37 autistic children with abnormal fecal chymotrypsin levels were administered secretin over the course of 6 months using the secretin infusion process described above. Their fecal chymotrypsin (FC) levels were measured weekly using the fecal chymotrypsin test described above.

[4] = test system: children diagnosed with Autism; settings: secretin given as diagnostic procedure during upper gastrointestinal endoscopy; Horvath et al. 1998; cited from earlier work

secretin
fecal chymotrypsin level post-secretin administration versus pre-secretin [1]: increased
CARS component scores (except fear component) ([2]; 3 weeks post infusion): demonstrated improvement
overall CARS scores post-secretin versus pre-secretin ([2]; approximately 3 weeks after first secretin administration): overall decrease
# Autistic Children w/Equivocal FC levels ([3]; 0 equivocal pre-secretin): 2
# Autistic Children w/normal FC levels ([3]; 0 normal pre-secretin): 34
# Autistic Children w/Abnormal FC levels ([3]; 37 abnormal pre-secretin): 1
symptoms associated with Autism [4]: ameliorating the symptoms
